Publication PMC12782889, “A GmNRF5a–GmCERK1–GmCAK1 module mediates chitin/chitosan‐triggered immune response in soybean” (Journal of Integrative Plant Biology, 2025)

What was measured:
GmNFR5a^ECDL153R = assay: MST binding to GmNFR5a^ECD mutant L153R; design: species or system soybean (Glycine max); settings: ligand dp6
Text: (§1) The ectodomains of GmCERK1, GmNFR5a, and mutants were cloned into the yeast expression vector pPICZαA (Thermo Fisher Scientific, Shanghai, China) through the double digestion and ligation using the restriction endonuclease EcoRI/XbaI (NEB, Suzhou, China) and T4 ligase. Then, the linearized recombinant plasmid pPICZαA‐GmCERK1 and pPICZαA‐GmNFR5a were transformed into P. pastoris X‐33. The positive colonies were selected on YPDS medium (1% w/v yeast extract, 2% w/v peptone, 2% w/v glucose, 2% w/v agar, 100 μg/mL antibiotic Zeocin (Thermo Fisher Scientific)) plates and verified by direct DNA sequencing. Protein expression was carried out initially in BMGY media (100 mM potassium phosphate pH 6.0, 1.34% w/v YNB, 4 × 10^−5% w/v biotin, 1% v/v glycerol) at 28°C with shaking (180 rpm) until the OD600 reached 2.0–6.0. The cell pellet was transferred into BMMY medium (100 mM potassium phosphate pH 6.0, 1.34% w/v YNB, 4 × 10^−5% w/v biotin, 0.5% v/v methanol) and continuously supplied with the addition of 0.5% (v/v) methanol every day for 5 d. […]
(§2) GmCERK1^ECD, GmNFR5a^ECD, and all mutants were labeled with a fluorescent dye using the Monolith Protein Labeling Kit RED‐NHS second Generation (MO‐L011). […] The data were analyzed and fitted by plotting ligand concentrations against bound fractions using the MO.Affinity Analysis v3.0.5 software. […]

GmNFR5a^ECDF124R = assay: MST binding to GmNFR5a^ECD mutant F124R; design: species or system soybean (Glycine max); settings: ligand dp6
Text: as §1, §2

Phytophthora sojae P6497 = assay: P. sojae infection of pretreated soybean hairy roots (GFP control); type: in vivo, Phytophthora sojae on soybean (Glycine max); settings: control hairy roots expressing GFP; 50 mg/L soak 12 h; 48 hpi; vs dH2O; P < 0.0001
Text: Soybean (cultivar Williams) seeds were surface sterilized and germinated as previously described ([Kereszt et al., 2007]). Soybean cotyledons were removed from […] seedlings grown in vermiculite. Cotyledons were harvested at Day 7 by gently twisting them off the hypocotyl. Only unblemished cotyledons were employed for all protocols. Individual cotyledons were surface sterilized by wiping with an alcohol swab soaked in 70% ethanol. The alcohol swab was wrung out slightly before use, so that it was wet but not dripping. […] Hairy roots were monitored for green fluorescence production over a period of 4 weeks. For silencing in hairy roots, the transcript levels of the targeted gene and its closest paralogs were measured in fluorescent green hairy roots using qRT‐PCR to assess silencing efficiency.
For soybean etiolated hypocotyls inoculation assays, etiolated hypocotyls of soybean (cultivar Williams) were inoculated with P. sojae zoospore suspensions (100 zoospores). […] For soybean hairy‐root inoculation assays, transgenic hairy roots were soaked in CTOS/CSOS (50 mg/L) or mock (dH2O) for 12 h and then were infected with red fluorescent protein (RFP)‐labeled P. sojae strain P6497, and fluorescence was visualized in the infected area of soybean hairy root and the biomass of P. sojae was determined by qRT‐PCR at 48 hpi.

AtCERK1^ECD = target: T1, AtCERK1^ECD (Arabidopsis thaliana, UniProt A8R7E6); design: method as in Cao et al., 2014; settings: isothermal titration calorimetry (ITC); ref Cao et al., 2014; read-out: K D for AtCERK1^ECD with CTOS; cited from earlier work
T1 construct: ectodomain of AtCERK1 (aa25–224); made in house; host or cells: Pichia pastoris X-33
T1 sequence (A8R7E6 25-224): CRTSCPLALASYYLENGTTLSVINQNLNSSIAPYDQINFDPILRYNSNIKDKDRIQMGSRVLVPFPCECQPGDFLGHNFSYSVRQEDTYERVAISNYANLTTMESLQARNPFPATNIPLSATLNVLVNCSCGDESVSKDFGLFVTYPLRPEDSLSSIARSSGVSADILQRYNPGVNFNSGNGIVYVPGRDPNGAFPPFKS

**Q.** What does the source list for `N[C@H]1[C@H](O[C@H]2[C@H](O)[C@@H](N)[C@H](O[C@H]3[C@H](O)[C@@H](N)[C@H](O[C@H]4[C@H](O)[C@@H](N)[C@H](O[C@H]5[C@H](O)[C@@H](N)[C@H](O[C@H]6[C@H](O)[C@@H](N)C(O)O[C@@H]6CO)O[C@@H]5CO)O[C@@H]4CO)O[C@@H]3CO)O[C@@H]2CO)O[C@H](CO)[C@@H](O)[C@@H]1O` (stereo partly shown) [CSOS (dp6), chitosan oligosaccharide]?
**A.** interaction with GmNFR5a^ECDL153R (GmNFR5a^ECDL153R): cannot interact; interaction with GmNFR5a^ECDF124R (GmNFR5a^ECDF124R): cannot interact

**Q.** For `CC(=O)N[C@H]1[C@H](O[C@H]2[C@H](O)[C@@H](NC(C)=O)[C@H](O[C@H]3[C@H](O)[C@@H](NC(C)=O)C(O)O[C@@H]3CO)O[C@@H]2CO)O[C@H](CO)[C@@H](O[C@@H]2O[C@H](CO)[C@@H](O[C@@H]3O[C@H](CO)[C@@H](O[C@@H]4O[C@H](CO)[C@@H](O)[C@H](O)[C@H]4NC(C)=O)[C@H](O)[C@H]3NC(C)=O)[C@H](O)[C@H]2NC(C)=O)[C@@H]1O` (stereo partly shown) [CTOS (dp6), chitin oligosaccharide], which “soybean defense against P. sojae (pathogen biomass)” value (Phytophthora sojae P6497) is on record?
**A.** The value was “significantly bolstered”.

**Q.** What about the Kd (AtCERK1^ECD) of the same molecule?
**A.** The Kd was 455 µM.
